Structures can show the parent of a compound that is named as a salt.
Assays:
[1] = test system: mouse ES cells (Pdx1/GFP); experiment: Differentiation of mouse ES cells into insulin positive cells on nano fiber plate, immunostaining and quantitative image analysis; format: cell-based; conditions: for effect on differentiation into insulin-expressing cells: compound added d11-d17, insulin staining d17 (FIG. 4, 5, 7, 8, 10); for Relative value of Ins positive cells: number of cells with no compound = 1, concentration of each compound (μM), added d11, d13, d15, analysed d17; for hit confirmed by dose-responsiveness: 0.08 to 10 μM, SK7 ES cells; for induction of the differentiation of stem cells into insulin-producing cells: similar separate experiments; for number of Pdx1/GFP positive cells / number of insulin positive cells: 0 to 10 μM added from d11, counted d17 (FIG. 14)
Text: Two ES cell lines, one expressing green fluorescent protein (GFP) under the control of insulin 1 promoter, designed ING (Higuchi Y., Shiraki N., Yamane K, Qin Z., Mochitate K., Araki K., Senokuchi K., Yamagata K., Hara M., Kume K., and Kume S., Synthesized basement membranes direct the differentiation of mouse embryonic stem cells into pancreatic lineages. J. Cell Science, 123, 2733-2742, 2010), and the other one expressing GFP under the control of Pdx1 promoter, designated SK7 (Shiraki N, Yoshida T, Araki K, et al. Guided differentiation of embryonic stem cells into Pdx1-expressing regional-specific definitive endoderm. Stem Cells. 2008; 26:874-885), were used. Both cell lines were maintained on mouse embryonic fibroblast (MEF) feeders in Glasgow minimum essential medium (Invitrogen) containing 1000 units/ml leukemia inhibitory factor (LIF; Chemicon), 15% Knocked-out Serum Replacement (KSR; Gibco), 1% fetal bovine serum (FBS; Hyclone), 100 μM nonessential amino acids (NEAA; Invitrogen), 2 mM L-glutamine (L-Gln; Invitrogen), 1 mM sodium pyruvate (Invitrogen), 50 units/ml penicillin and 50 μg/ml streptomycin (PS; Invitrogen) and 100 μM β-mercaptoethanol (β-ME; Sigma), as ES maintenance medium.
For the differentiation studies, ES cells were plated at 5,000 cells per well in Corning 96 well plate with Ultra-Web Synthetic Polyamine Surface (#3873XX1, Corning Coster, Cambridge, Miss.), and cultured. The cells were cultured in Dulbecco's Modified Eagle Medium (DMEM: Invitrogen, Glasgow, UK) containing 4500 mg/L glucose, supplemented with NEAA, L-Gln, PS, β-ME, 10 μg/ml insulin (Sigma-Aldrich), 5.5 μg/ml transferrin (Sigma-Aldrich), 6.7 pg/ml selenium (Sigma-Aldrich), and 0.25% Albmax (Invitrogen), 10 ng/mL recombinant human activin-A (R&D Systems, Minneapolis, Minn.), 5 ng/mL; recombinant human bFGF for 7 days (d1-d7) (I of FIG. 1). And then, the medium was changed to RPMI 1640 medium (Invitrogen) containing 2000 mg/L glucose (Sigma, St Louis, Mo.), 1 μM Retinoic acid (Sigma-Aldrich), 50 ng/ml Human Recombinant Fibroblast Growth Factor-10 (Peprotech, Rocky Hill, N.J.), B27 SUPPLEMENT (Invitrogen) and 0.25 μM 3-Keto-N-(aminoethyl-aminocaproyl-dihydrocinnamoyl) cyclopamine Shh Signaling Antagonist II (Calbiochem, San Diego, Calif.) on d7 to d11 (II of FIG. 1). Finally, the medium was switched to DMEM containing 1000 mg/L glucose supplemented with NEAA, L-Gln, PS, β-ME, 10 μg/ml insulin (Sigma-Aldrich), 5.5 μg/ml transferrin (Sigma-Aldrich), 6.7 pg/ml selenium (Sigma-Aldrich), 0.25% Albmax (Invitrogen) and 10 mM nicotinamide (Sigma-Aldrich) on d11 to d17 (III of FIG. 1). Media were replaced every 2 days with fresh medium and growth factors until d17.
All tested small chemical compounds were solved in dimethyl sulfoxide (DMSO) at given concentration. Compounds were added on d11, d13 and d15 in a medium. Final concentration of DMSO was adjusted at 1.0% in all experiments for compounds.
After 17 days cell culture, cultured ES cells were fixed in 4% paraformaldehyde in PBS for 30 min at room temperature, and rinsed several times with PBS. Then, cells were incubated in the added diluted primary antibody in 20% Blocking One (Nacalai tesque, Tokyo, Japan) in PEST (0.1% Tween-20 in PBS) in a humidified chamber for overnight at 4° C. After washing the cells in PBST, cells were incubated with the secondary antibody in 20% Blocking One for 2 hr at room temperature in dark. After washing off the secondary antibody in PBST, cells were counterstained with […] (DAPI) (Roche Diagnostics). The following antibodies were used as First antibodies: Rabbit anti-GFP (MBL International Corp., Woburn, Mass.), Mouse anti-Insulin (Sigma). The following antibodies were used as Secondary antibodies: Alexa 568-conjugated, Alexa 488-conjugated antibodies (Invitrogen) Cells were counterstained with DAPI (Roche Diagnotics, Basel, Switzerland).

differentiated ES cells [2] = experiment: Secreted insulin and cellular insulin content by mouse c-peptide ELISA; format: cell-based; conditions: TBZ 2.5 μM, dBu-cAMP 0.6 μM, day 11 to 17; sorted GFP positive cells day 17 (FIG. 18D)
Ngn3/GFP mouse ES cells = experiment: Ngn3 positive cell inducing rate; format: cell-based
Protocol: The influence exerted on the Ngn3 positive cell inducing rate by addition of TBZ (2.5 μM) or dBu-cAMP (0.6 μM) was confirmed. FIG. 16A is a view schematically showing the addition periods of TBZ or dBu-cAMP, and the addition periods are a) on days 9 to 11 of culture, b) on days 11 to 13 of culture, and c) on days 9 to 13 of culture.
First, the compound was not added or TBZ was added on days 9 to 13 of culture (period c), and visible light photographs and fluorescence of Ngn3/GFP mouse ES cells were observed on day 13 of culture. The left one is a visible light photograph and the right one is fluorescence.
Next, the compound was not added, or TBZ or dBu-cAMP was added under the above-described conditions a), b) and c), and the proportion of GFP positive cells on day 13 of culture was checked. The ratios of the proportions of GFP positive cells and Ngn3 positive cells when the ratio in the case of no addition is 1 are shown in FIG. 16C. […] The order of intensity of the effect was a), c), b) in descending order.

differentiated ES cells [3] = experiment: Real time PCR of gene expression in differentiated ES cells; format: cell-based, mouse; conditions: TBZ 2.5 μM

SMILES: N[C@@H](Cc1c[nH]c2ccc(O)cc12)C(=O)O [5HTP, 5-hydroxytryptophan]
- effect on differentiation into insulin-expressing cells [1]: the same effect

SMILES: CO[C@@H]1[C@@H]2OP(=O)(O)OC[C@H]2O[C@H]1n1c(Sc2ccc(Cl)cc2)nc2c(N)ncnc21 [8-CPT-2-Me-cAMP]
- Relative value of Ins positive cells [1]: 3.7

SMILES: C[N+](C)(C)CCOC(N)=O [Carbachol, carbachol]
- effect on differentiation into insulin-expressing cells [1]: increased insulin positive cells

SMILES: C[C@@](Cc1ccc(O)c(O)c1)(NN)C(=O)O [Carbidopa, carbidopa]
- effect on differentiation into insulin-expressing cells [1]: the same effect

SMILES: CN1CC[C@@]2(C)c3cc(O)ccc3N(C)[C@@H]12.O=C(O)/C=C/C(=O)O [Eseroline fumarate salt, eseroline fumarate]
- hit confirmed by dose-responsiveness [1]: positive
- effect on differentiation into insulin-expressing cells [1]: increased insulin positive cells
- Relative value of Ins positive cells [1]: 1.8

SMILES: Nc1nc2ncc(CNc3ccc(C(=O)N[C@@H](CCC(=O)O)C(=O)O)cc3)nc2c(=O)[nH]1 [Folic acid, folic acid]
- hit confirmed by dose-responsiveness [1]: positive

SMILES: COc1cc2c(cc1OC)-c1cc3ccc(OC)c(OC)c3c[n+]1CC2 [Palmatine chloride, palmatine chloride]
- hit confirmed by dose-responsiveness [1]: positive
- effect on differentiation into insulin-expressing cells [1]: increased insulin positive cells

SMILES: C#CCN(C)Cc1ccccc1 [Pargyline, pargyline hydrochloride]
- effect on differentiation of Pdx1 positive cells into insulin-producing cells ([1]; 1 μM Pargyline (FIG. 6, 7)): disturbs the differentiation of Pdx1 positive cells into insulin-producing cells
- effect on Pdx1 positive pancreatic precursor cells ([1]; reserpine 0.63 μM, Pargyline 1 μM (FIG. 6, 7)): without influencing the ratio of Pdx1-expressing cells
- induction of the differentiation of stem cells into insulin-producing cells [1]: induce the differentiation of stem cells into insulin-producing cells
- effect of 1 μM Pargyline on differentiation in presence of reserpine ([1]; with 0.63 μM reserpine): deactivated

SMILES: COc1cc2c(cc1OC)C1CC(=O)C(CC(C)C)CN1CC2 (stereo not shown) [Tetrabenazine, tetrabenazine]
- effect on differentiation into insulin-expressing cells [1]: promoted the differentiation into insulin-expressing cells
- C-peptide content of GFP positive cells (differentiated ES cells [2]): increased
- Ngn3 positive cells (fluorescence) (Ngn3/GFP mouse ES cells; TBZ 2.5 μM on days 9 to 13, observed day 13 (FIG. 16B)): increase of Ngn3 positive cells
- number of GFP positive cells (Ngn3/GFP mouse ES cells; TBZ 2.5 μM or dBu-cAMP 0.6 μM, addition days 9-11, 11-13 or 9-13, day 13 (FIG. 16C)): increased in all conditions
- expression of Abcc8 (differentiated ES cells [3]; dBu-cAMP 0.6 μM (FIG. 13)): did not increase
- expression of Glut2 (differentiated ES cells [3]; dBu-cAMP 0.6 μM (FIG. 13)): did not increase
- expression of MafA (differentiated ES cells [3]; dBu-cAMP 0.6 μM (FIG. 13)): increased slightly
- expression of Stx1 (differentiated ES cells [3]; dBu-cAMP 0.6 μM (FIG. 13)): increased slightly
- expression level of MafA, time course (differentiated ES cells [3]; dBu-cAMP 0.6 μM from day 11, after day 13 (FIG. 15)): promoted
- expression level of Nkx6.1 (differentiated ES cells [3]; dBu-cAMP 0.6 μM from day 11, after day 15 (FIG. 15)): strongly promoted
- expression level of Ngn3 (differentiated ES cells [3]; dBu-cAMP 0.6 μM from day 11, day 13 and day 15 (FIG. 15)): increased remarkably
- expression level of Insulin1 (differentiated ES cells [3]; dBu-cAMP 0.6 μM from day 11, single after day 13, both after day 15 (FIG. 15)): promoted

SMILES: C[C@](N)(Cc1ccc(O)cc1)C(=O)O [alpha- Methyltyrosine, α-methyltyrosine]
- effect on differentiation into insulin-expressing cells [1]: the same effect

SMILES: O=C(CCCN1CCN(c2ccccn2)CC1)c1ccc(F)cc1 [azaperone]
- induction of the differentiation of stem cells into insulin-producing cells [1]: induce the differentiation of stem cells into insulin-producing cells

SMILES: CN(C)CCC(c1ccc(Cl)cc1)c1ccccn1 (stereo not shown) [chlorpheniramine maleate]
- induction of the differentiation of stem cells into insulin-producing cells [1]: induce the differentiation of stem cells into insulin-producing cells

SMILES: CN/C(=N/CCSCc1nc[nH]c1C)NC#N [cimetidine]
- induction of the differentiation of stem cells into insulin-producing cells [1]: induce the differentiation of stem cells into insulin-producing cells

SMILES: CN(C)CCCSC(=N)N [dimaprit dihydrochloride]
- induction of the differentiation of stem cells into insulin-producing cells [1]: induce the differentiation of stem cells into insulin-producing cells

SMILES: NCCc1ccc(O)c(O)c1 [dopamine]
- effect on insulin positive cells ([1]; 0.1 μM dopamine (FIG. 11B)): decreased insulin positive cells
- effect on enhancement effect of dBu-cAMP ([1]; 0.1 μM dopamine with 0.6 μM dBu-cAMP (FIG. 11B)): scarcely influenced
- effect on increase of insulin-expressing cells mediated by reserpine ([1]; 0.1 μM dopamine with 0.6 μM reserpine (FIG. 11B)): inhibited completely
- concentration inhibiting completely the differentiation of β cells ([1]; FIG. 8): ≥ 100 nM
- effect on differentiation into insulin-expressing cells [1]: suppressed the differentiation of pancreas in a dose-dependent manner

SMILES: Cc1c2ccncc2c(C)c2c1[nH]c1ccccc12 [ellipticine]
- hit confirmed by dose-responsiveness [1]: positive

SMILES: COCCCC/C(=N\OCCN)c1ccc(C(F)(F)F)cc1 [fluvoxamine maleate]
- induction of the differentiation of stem cells into insulin-producing cells [1]: induce the differentiation of stem cells into insulin-producing cells

SMILES: C[C@@H]1C(=O)O[C@H]2C[C@@]34[C@H]5C[C@@H](C(C)(C)C)[C@]36[C@@H](OC(=O)[C@@H]6O)O[C@@]4(C(=O)O5)[C@]21O [ginkgolide A]
- induction of the differentiation of stem cells into insulin-producing cells [1]: induce the differentiation of stem cells into insulin-producing cells

SMILES: NCCc1c[nH]cn1 [histamine]
- number of Pdx1/GFP positive cells [1]: did not vary
- number of insulin positive cells [1]: decreased in a concentration-dependent manner

SMILES: OCCOCCN1CCN(C(c2ccccc2)c2ccc(Cl)cc2)CC1 (stereo not shown) [hydroxyzine dihydrochloride]
- induction of the differentiation of stem cells into insulin-producing cells [1]: induce the differentiation of stem cells into insulin-producing cells

SMILES: Cc1nccn1CC1CCc2c(c3ccccc3n2C)C1=O (stereo not shown) [ondansetron hydrochloride]
- induction of the differentiation of stem cells into insulin-producing cells [1]: induce the differentiation of stem cells into insulin-producing cells

SMILES: CCN(CC)CCCC(C)Nc1c2ccc(Cl)cc2nc2ccc(OC)cc12 (stereo not shown) [quinacrine dihydrochloride dihydrate]
- induction of the differentiation of stem cells into insulin-producing cells [1]: induce the differentiation of stem cells into insulin-producing cells

SMILES: NCCc1c[nH]c2ccc(O)cc12 [serotonin]
- number of Pdx1/GFP positive cells [1]: did not vary
- number of insulin positive cells [1]: decreased in a concentration-dependent manner

— patent US9617517B2, “Small chemical compound which promotes induction of differentiation of stem cells into insulin-producing cells and method for inducing differentiation of stem cells into insulin-producing cells using said small chemical compound” (NATIONAL UNIVERSITY CORPORATION KUMAMOTO UNIVERSITY, priority 2011, dated 2017)
